By CC50 is commonly meant the concentration at which the toxic effect on the cells reaches its halfway point. What is called IC50 is the concentration that gives 50% inhibition.

In data set [1] the test system is HIV. The settings on record: compared with emtricitabine (FTC); cited from earlier work.
A short description of data set [2]: Cytotoxicity (CC50) in Vero E6 and huh-7 cells. In kind it is cell-based. The settings on record: African green monkey (Vero E6) and human (huh-7), Vero E6 cells and huh-7 cells.
Data set [3] has as its system HCoV-229E. Put plainly: Inhibition of virus-induced cytopathic effect (MTT), HCoV-229E. It is filed as cell-based. The settings on record: Human coronavirus 229E, CPE inhibition, 100 TCID50, 72–96 h. (Protection from cytopathic effect is a common read-out in antiviral testing.)
The test system of data set [4] is SARS-CoV-2 XBB.1.16. Kind of data set: Inhibition of virus-induced cytopathic effect (MTT), SARS-CoV-2 XBB.1.16. In kind it is cell-based. The settings on record: Severe acute respiratory syndrome coronavirus 2.
The subject of data set [5] is SARS-CoV-2 BQ.1.1.45. Put plainly: Inhibition of virus-induced cytopathic effect (MTT), SARS-CoV-2 BQ.1.1.45. In kind it is cell-based. The settings on record: Severe acute respiratory syndrome coronavirus 2.
For data set [6], the system named is SARS-CoV-2 EG.5.1.1. Put plainly: Inhibition of virus-induced cytopathic effect (MTT), SARS-CoV-2 EG.5.1.1. In kind it is cell-based. The settings on record: Severe acute respiratory syndrome coronavirus 2.

On to `CCCCCCCCCCCCCC(=O)OC[C@@H]1O[C@H](n2cc(F)c(N)nc2=O)CS1`, for which, in data set [1], the “times higher anti-HIV activity than the parent drug” value was 10–24 times.
In data set [2], `CC(C)C(=O)OC[C@H]1O[C@@H](n2ccc(NO)nc2=O)[C@H](O)[C@@H]1O` [EIDD-2801, Molnupiravir, reference compound] showed a CC50 of no less than 50000 nM. In addition, the IC50 in data set [3] is 3440 nM; in data set [4], 1510 nM; in data set [5], 310 nM; in data set [6], 530 nM.
Compound `Cc1ccc(CC(=O)OC[C@H]2O[C@@H](n3ccc(NO)nc3=O)[C@H](O)[C@@H]2O)cc1` [SN_14, 5′-O-(4-Methylphenyl)acetyl-N4-hydroxycytidine] returned a CC50 in data set [2] of no less than 50000 nM. The IC50 came out at 10500 nM in data set [3], 2160 nM in data set [4], 700 nM in data set [5] and 1090 nM in data set [6].
`COc1cccc(CC(=O)OC[C@H]2O[C@@H](n3ccc(NO)nc3=O)[C@H](O)[C@@H]2O)c1` [SN_15, 5′-O-(3-Methoxyphenyl)acetyl-N4-hydroxycytidine] registered a cytotoxic concentration (CC50) in data set [2] of no less than 50000 nM. For the same compound, the IC50 in data set [3] was 11100 nM; in data set [4], 2090 nM; in data set [5], 740 nM; in data set [6], 530 nM.
`COc1ccc(CC(=O)OC[C@H]2O[C@@H](n3ccc(NO)nc3=O)[C@H](O)[C@@H]2O)cc1` [SN_16, 5′-O-(4-Methoxyphenyl)acetyl-N4-hydroxycytidine]: the CC50 in data set [2] is no less than 50000 nM. For the same compound, the IC50 was determined as 7290 nM in data set [3], 2020 nM in data set [4], 710 nM in data set [5] and 560 nM in data set [6].
For `O=C(Cc1ccccc1F)OC[C@H]1O[C@@H](n2ccc(NO)nc2=O)[C@H](O)[C@@H]1O` [SN_17, 5′-O-(2-Fluorophenyl)acetyl-N4-hydroxycytidine], in that order: no less than 50000 nM, 7860 nM, 1690 nM, 650 nM and 980 nM.
For `O=C(Cc1ccc(F)cc1)OC[C@H]1O[C@@H](n2ccc(NO)nc2=O)[C@H](O)[C@@H]1O` [SN_18, 5′-O-(4-Fluorophenyl)acetyl-N4-hydroxycytidine], in that order: no less than 50000 nM, 21000 nM, 2760 nM, 1210 nM and 1780 nM.
For `O=C(Cc1ccccc1Cl)OC[C@H]1O[C@@H](n2ccc(NO)nc2=O)[C@H](O)[C@@H]1O` [SN_19, 5′-O-(2-Chlorophenyl)acetyl-N4-hydroxycytidine], in that order: no less than 50000 nM, 23800 nM, 5710 nM, 2340 nM and 2160 nM.
Consider `O=C(OC[C@H]1O[C@@H](n2ccc(NO)nc2=O)[C@H](O)[C@@H]1O)C1(c2ccccc2)CC1` [SN_20, 5′-O-(1-Phenylcyclopropanoyl-1-carbonyl)-N4-hydroxycytidine], for which the CC50 in data set [2] was no less than 50000 nM. The IC50 was greater than 100000 nM in data set [3], greater than 100000 nM in data set [4], no less than 50000 nM in data set [5] and greater than 100000 nM in data set [6].
For the compound `O=C(COc1ccccc1)OC[C@H]1O[C@@H](n2ccc(NO)nc2=O)[C@H](O)[C@@H]1O` [SN_21, 5′-O-Phenoxyacetyl-N4-hydroxycytidine], in data set [2], the CC50 was no less than 50000 nM. The IC50 in data set [3] was found to be 5130 nM; in data set [4], 1280 nM; in data set [5], 860 nM; in data set [6], 830 nM.
The corresponding values for `Cc1cccc(OCC(=O)OC[C@H]2O[C@@H](n3ccc(NO)nc3=O)[C@H](O)[C@@H]2O)c1` [SN_22, 5′-O-(3-Methylphenoxy)acetyl-N4-hydroxycytidine] are no less than 50000 nM, 1620 nM, 250 nM, 210 nM and 200 nM.
Consider `COc1cccc(CCC(=O)OC[C@H]2O[C@@H](n3ccc(NO)nc3=O)[C@H](O)[C@@H]2O)c1` [SN_23, 5′-O-3-(3-Methoxyphenyl)propanoyl-N4-hydroxycytidine], for which the CC50 in data set [2] is no less than 50000 nM. The IC50 in data set [3] amounted to 1680 nM; in data set [4], 1020 nM; in data set [5], 260 nM; in data set [6], 300 nM.

These data come from PMC10821229, “Synthesis and Antiviral Activity of Novel β-D-N4-Hydroxycytidine Ester Prodrugs as Potential Compounds for the Treatment of SARS-CoV-2 and Other Human Coronaviruses” (Pharmaceuticals, 2023).
